The text below walks through data of PMC12527173, “Cytotoxic, anti-inflammatory, antioxidant, and anti-glyoxalase-I evaluation of chelating substances: In silico and in vitro study” (PLOS One, 2025).

For series [1], the system named is Breast cancer cell line MCF7. Nature of the series: SRB cytotoxicity assay, MCF7. The format is cell-based. As to conditions: Homo sapiens, 72 h incubation, n = 12, read-out: Cytotoxicity (as of %Control) IC50 value MCF7 mammary malignancy. The procedure:
(§1) The cancer cell lines were cultured in DMEM supplemented with 10% FBS (Bio Whittaker, Verviers, Belgium), HEPES Buffer (10 mM), gentamicin (50 µg/mL), L-glutamine (100 μg/mL), streptomycin ([…]), penicillin (100 µg/mL), and 4-(2-hydroxyethyl)-1-piperazineethanesulfonic acid (HEPES) Buffer (Sigma, St. Luis, MO, USA). The Sulforhodamine B used was obtained from Santa Cruz Biotechnology, Inc. in Texas, USA. […] Periodontal ligament fibroblasts (PDL) were utilized to assess specific cytotoxicity. Cancer cell lines that have survived offer several benefits. They provide a consistent and uninterrupted source of cells, so bypassing any ethical concerns related to the use of human tissue. Additionally, they are cost-effective. The cytotoxicity levels were assessed using the Sulforhodamine B (SRB) colorimetric assay, provided by Santa Cruz Biotechnology, Inc. in Texas, USA. The Spectro Scan 80D UV-VIS spectrophotometer, manufactured by Sedico Ltd. in Nicosia, Cyprus, was employed for this cytotoxicity screening. The cells were co-incubated with substances or a reference agent at various doses ranging from 5 to 200 μg/mL. […] The reduction in cell viability was analyzed by plotting Dose-response curves and expressing the data as a percentage of the control optical density. The IC50 values were obtained using regression analysis.

In series [2] the test system is SW620 colorectal cancer cell line. Nature of the series: SRB cytotoxicity assay, SW620. Type of series: cell-based. As to conditions: Homo sapiens, SW-620, 72 h incubation, n = 12, read-out: Cytotoxicity (as of %Control) IC50 value SW620. The procedure: as §1
The subject of series [3] is HCT116 colorectal cancer cell line. As to the kind of experiment: SRB cytotoxicity assay, HCT116. The format is cell-based. As to conditions: Homo sapiens, HCT-116, 72 h incubation, n = 12, read-out: Cytotoxicity (as of %Control) IC50 value HCT116. The protocol: as §1
In general terms: In SRB staining, fixed cells bind dye roughly in proportion to their protein.

Series [4] has as its system SW480 colorectal cancer cell line. Nature of the series: SRB cytotoxicity assay, SW480. Type of series: cell-based. As to conditions: Homo sapiens, 72 h incubation, n = 12, read-out: Cytotoxicity (as of %Control) IC50 value SW480. The procedure:
as §1

Series [5] has as its system A375 human skin cancer cell line. As to the kind of experiment: SRB cytotoxicity assay, A375. The format is cell-based. As to conditions: A-375, 72 h incubation, n = 12, read-out: Cytotoxicity (as of %Control) IC50 value A375 skin melanoma. The protocol: as §1
Series [6] has as its system CACO2 colorectal cancer cell line. As to the kind of experiment: SRB cytotoxicity assay, CACO2. As to conditions: Homo sapiens, Caco-2, 72 h incubation, n = 12, read-out: Cytotoxicity (as of %Control) IC50 value CACO2. Type of series: cell-based. The protocol: as §1
The test system of series [7] is T47D breast cancer cell line. Nature of the series: SRB cytotoxicity assay, T47D. Type of series: cell-based. As to conditions: Homo sapiens, 72 h incubation, n = 12, read-out: Cytotoxicity (as of %Control) IC50 value T47D mammary malignancy. The procedure: as §1
Series [8] concerns HeLa uterine cervix adenocarcinoma cell line. As to the kind of experiment: SRB cytotoxicity assay, HeLa. Type of series: cell-based. As to conditions: Homo sapiens, 72 h incubation, n = 12, read-out: Cytotoxicity (as of %Control) IC50 value Hela cervix malignancy. The procedure:
as §1

For series [9], the system named is A549 lung cancer cell line. As to the kind of experiment: SRB cytotoxicity assay, A549. As to conditions: Homo sapiens, 72 h incubation, n = 12, read-out: Cytotoxicity (as of %Control) IC50 value A549 lung malignancy. Type of series: cell-based. The procedure:
as §1

In series [10] the test system is HT-29 colorectal cancer cell line. As to the kind of experiment: SRB cytotoxicity assay, HT29. Type of series: cell-based. As to conditions: Homo sapiens, 72 h incubation, n = 12, read-out: Cytotoxicity (as of %Control) IC50 value HT29. The procedure:
as §1

Series [11] relates to Human PC3 prostate cancer cell line. As to the kind of experiment: SRB cytotoxicity assay, PC3. Type of series: cell-based. As to conditions: 72 h incubation, n = 12, read-out: Cytotoxicity (as of %Control) IC50 value PC3 prostate malignancy. The procedure: as §1
In series [12] the test system is PANC1 pancreatic cell line. Nature of the series: SRB cytotoxicity assay, PANC1. Type of series: cell-based. As to conditions: Homo sapiens, PANC-1, 72 h incubation, n = 12, read-out: Cytotoxicity (as of %Control) IC50 value PANC1. The procedure: as §1
The nature of series [13]: SRB cytotoxicity assay, normal PDL fibroblasts. The format is cell-based. As to conditions: normal periodontal ligament (PDL) fibroblasts, 72 h incubation, 0.1–200 µM range, read-out: Cytotoxicity (as of %Control) IC50 value PDL fibroblasts. The protocol:
as §1

Series [14] can be described thus: DPPH free radical scavenger assay. As to conditions: DPPH radical scavenging; n = 12. The source says:
This approach relies on the reduction of the radicals, which causes a change in colour from oxidized purple to reduced yellow. Primarily, Diphenyl-2-picryl-hydrazyl (DPPH) is reduced in a solution of methanol (MeOH) when a chemical that donates hydrogen is present. This reduction is due to the creation of the non-radical form DPPH-H. The alteration in colour can be precisely assessed by employing a spectrophotometer within the wavelength range of 515–520 nm. Unlike other assays for radical scavenging, the DPPH radical is stable and yields consistent spectroscopic data. A 0.2 mM DPPH solution was diluted with MeOH and then combined with treatment compounds and ascorbic acid in a 1:1 concentration ratio using a 96-well plate. […] The solution was then incubated for one hour, isolated from light. Subsequently, the alteration in absorbance at a wavelength of 517 nm was quantified using a microplate reader manufactured by Bio-Tek Instrument in the United States. Ascorbic acid served as a strong and traditional benchmark for comparing the effectiveness of radical scavenging agents. The DPPH radical scavenging activity inhibition was calculated using the following equation, where A denotes photometric absorbance: The formula to calculate the percentage difference between a control and a sample is: (A control – A sample)/ A control x 100% [71, 72].

The test system of series [15] is LPS-primed RAW 264.7 murine macrophages (nitrite / iNOS). Nature of the series: Anti-inflammatory (nitrite) determination in LPS-primed macrophages. Type of series: cell-based. As to conditions: Mus musculus. The protocol:
The RAW 264.7 mouse macrophage cell line (ATCC® TIB-71) was cultivated in high glucose DMEM with 10% foetal bovine serum (FBS), 100 U/mL penicillin, 100 μg/mL streptomycin, and 100 μg/mL L-glutamate. The cells were incubated at 37°C in a humidified environment with 95% air and 5% CO2. Confluent macrophages (2 x 10^5/well) were cultured with lipopolysaccharide (LPS; 20 μg/mL; Sigma, St. Luis, MO, USA) and indomethacin (25–200 μg/mL) as the positive control, along with various concentrations (5–200 μg/mL) of treatment compounds. The cells were incubated for 24 hours. 100 μL of Griess reagent were combined with 100 μL portions of cell culture medium and left to incubate at room temperature for 10 minutes. The absorbance at a wavelength of 550 nm was measured using a microplate reader, namely the Spectro Scan 80D UV-VIS spectrophotometer manufactured by Sedico Ltd. in Nicosia, Cyprus. The nitrite concentration was assessed by comparing it to a standard curve of sodium nitrite. A cytotoxicity protocol using SRB was conducted to assess the impact of the test substances under study on RAW 264.7 viability.

Series [16] concerns the target T1, human recombinant Glo-I enzyme (rhGlo-I) (Homo sapiens, UniProt Q04760).
T1 construct: N-terminal Met and 6-His tag (N); purchased R&D Systems; host or cells: E. coli
T1 sequence (Q04760 2-184 limits assumed): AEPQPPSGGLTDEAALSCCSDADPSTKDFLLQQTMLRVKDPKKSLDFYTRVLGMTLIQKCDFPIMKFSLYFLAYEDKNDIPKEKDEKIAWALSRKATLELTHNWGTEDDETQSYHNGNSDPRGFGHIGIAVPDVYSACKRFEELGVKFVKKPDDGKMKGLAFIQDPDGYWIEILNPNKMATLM
As to the kind of experiment: Glyoxalase-I (Glo-I) enzyme inhibition assay. Type of series: biochemical. The procedure: Solvents and chemicals were procured from Sigma-Aldrich Co. and Acros (ThermoFisher Scientific, New Jersey, USA). […] The enzyme was obtained from R&D Systems® Corporation in the USA. Synthetic compounds were tested for their inhibitory effects on the enzyme using a 10 mM DMSO stock concentration in triplicates. The manufacturer’s protocol from R & D Systems, Inc. in Minneapolis, MN, USA was followed for the in vitro experiments. The reconstituted Glo-I enzyme (0.5 mg/mL) was thawed after being stored at −70°C in sterile deionized water. […] The monitoring was done at a wavelength of 240 nm for 200 seconds at 37°C. The substrate mixture was freshly concocted with a concentration of 100 mM glutathione and 100 mM methylglyoxal (MG) in assay buffer containing 0.5 M sodium phosphate dibasic/monobasic. It was then left undisturbed at room temperature for 15 minutes […]. The selected compounds for investigation are subsequently produced in testing concentration ranges using a 0.1 M solution of sodium phosphate dibasic/monobasic with a pH range of 7–7.2. The blank contained an assay buffer with MG substrate. The test compounds were combined with human recombinant Glo-I (50 µM) in a 96-well plate to determine their kinetic behavior.

Series [17] has as its target T1, human recombinant Glo-I enzyme (rhGlo-I). Also noted: method as in PMID 34264188. As to conditions: prior publication ref 87; read-out: IC50 against Glo-I; cited from earlier work.
Setting [18] is: read-out: Trial one (%inhibtion).
Where [19] appears, read: read-out: Trial three (%inhibtion).
The mark [20] stands for this setting: read-out: Trial two (%inhibtion).

Where two headings read alike, the source gives them in different places.

Turning to `COc1cccc2c1C(=O)c1c(O)c3c(c(O)c1C2=O)C[C@@](O)(C(=O)CO)C[C@@H]3O[C@H]1C[C@H](N)[C@H](O)[C@H](C)O1` [Doxorubicin, reference compound], the IC50 came out at 4.81 ± 0.21 µM in series [1]; 0.65 ± 0.03 µM in series [2]; 0.92 ± 0.03 µM in [3]; 0.01 µM in [4]; 0.28 ± 0.14 µM in [5]; 0.92 ± 0.03 µM in series [6]. Besides, the IC50 is 0.02 µM in [7]; 5.56 ± 0.08 µM in series [8]; 0.28 µM in series [9]; 0.006 µM in series [10]; 0.13 ± 0.01 µM in series [11]; 7.17 ± 1.07 µM in series [12]. The IC50 at 72 h in series [13] was more than 200 µM.
As for `O=c1c(O)c(-c2cc(O)c(O)c(O)c2)oc2cc(O)cc(O)c12` [Myricetin, reference compound], the IC50 is 73 ± 0.78 µM in series [1]; 42.8 ± 0.78 µM in series [2]; 70.7 ± 11.6 µM in series [14]; 44.7 ± 2.14 µM in series [3]; 88.9 ± 14.1 µM in [4]; 51.7 ± 4.1 µM in series [5]. The IC50 in series [6] came to 106.5 ± 0.6 µM; in series [7] it was 29.8 ± 2.6 µM; in series [8], 35.8 ± 4.4 µM; in [9], 27.5 ± 4.47 µM; in series [15] (RAW264.7, 24 h, read-out: iNOS- IC50 value) it was 0.07 ± 0.01 µM; in series [15] (RAW264.7, read-out: IC50, ability to reduce inflammation) it was 0.05 µM. Besides, the IC50 in [10] was 32.6 ± 1.06 µM; in series [11] it was 65.4 ± 1.84 µM; in [12], 198 ± 43 µM. In addition, the IC50 at 72 h in [13] is more than 200 µM.
Take `O=C(/C=C/c1ccc(O)c(O)c1)O[C@H]1[C@H](O)[C@@H](O)[C@H](OCCc2ccc(O)c(O)c2)O[C@@H]1CO` [Calceolarioside A]: the IC50 in [1] came out at 899 ± 179 µM; in series [7], 45.6 ± 3.46 µM; in series [8], 208 ± 34.8 µM; in series [16] (human recombinant Glo-I, triplicates, read-out: IC50 µM ± SD), 44.3 ± 18.6 µM. For the same molecule, in series [13], the IC50 at 72 h was more than 200 µM. Moreover, the results for the inhibition at 3.125 µM in series [16] (setting [18]), in series [16] (setting [19]) and in series [16] (setting [20]) were 15.4%, 6.7% and 7.9%, respectively. The inhibition at 6.25 µM in series [16] (setting [18]) came out at 14.4%; in [16] (setting [19]), 9.01%; in series [16] (setting [20]) it was 9.06%. In addition, the inhibition at 12.5 µM was determined as 25.3% in [16] (setting [18]), 20.9% in [16] (setting [19]) and 12% in series [16] (setting [20]). Also, the values for the inhibition at 25 µM in [16] (setting [18]), in [16] (setting [19]) and in series [16] (setting [20]) were 35.3%, 29.6% and 27.5%, respectively. For the same molecule, the inhibition at 50 µM turned out to be 55.6% in series [16] (setting [18]), 56% in series [16] (setting [19]) and 53.5% in [16] (setting [20]). Besides, in series [16] (highest mean inhibition over the tested concentrations, in % (unit assumed)), the “Maximum (descriptive statistics of enzyme inhibition)” value is 55.00. In [16] (lowest mean inhibition over the tested concentrations, in % (unit assumed)), the “Minimum (descriptive statistics of enzyme inhibition)” value was found to be 10.00.
Take `C[C@H](Cc1ccc(O)c(O)c1)[C@@H](C)Cc1ccc(O)c(O)c1` [4,4’-((2R,3S)-2,3-dimethylbutane-1,4-diyl)bis(benzene-1,2-diol)]: the IC50 in series [17] was 0.0365 µM.

What is called IC50 is the concentration that gives 50% inhibition.
